Values quoted from earlier work as cited in patent publication US6461590B2, “Stabilized gas-supersaturated suspensions and methods for their delivery” (Wayne State University, priority 1996, dated 2002).

For `OCC(O)CO` [Glycerin], the oxygen solubility is listed as 0.008 cc O2/g/atm.
